Experimental findings from the Deep4Chem optical property database are described below.

A short description of this data set: solvent given as SMILES.

Consider `CCC(CC)COC1=CC2=C3c4cc(OCC(CC)CC)c(-c5cccs5)n4[B-](F)(F)[n+]4c3n(c3cc(C(C)(C)C)ccc34)[B-](F)(F)[N+]2=C1c1cccs1`, for which the emission maximum was 809 nm (in C1CCOC1) and 811 nm (in ClCCl).
In the case of `c1ccc(N(c2ccccc2)c2ccc(-c3ccc4c(c3)C3(c5cc(-c6ccc(N(c7ccccc7)c7ccccc7)cc6)ccc5-4)c4ccccc4N(c4ccccc4)c4ccccc43)cc2)cc1`, the emission maximum is on record as 451 nm (in ClCCl) and 432 nm (in c1cc(-n2c3ccccc3c3ccccc32)cc(-n2c3ccccc3c3ccccc32)c1).
On to `CCN(CC)c1ccc2cc(-c3cn4ccccc4n3)c(=O)oc2c1`, for which the emission maximum runs as follows: (in C1CCOC1) 474 nm; (in CC#N) 475 nm; (in CCO) 482 nm; (in CCOC(C)=O) 468 nm; (in CN(C)C=O) 477 nm; (in CO) 485 nm. Moreover, the emission maximum is, setting by setting: (in CS(C)=O) 482 nm; (in Cc1ccccc1) 469 nm; (in ClC(Cl)Cl) 471 nm; (in ClCCl) 478 nm.
In turn, `CCOC(=O)CCCCCn1c2ccccc2c(=O)c2cc(I)ccc21` showed an emission maximum (in CO) of 430 nm.
Molecule `COc1ccc(-c2ccc3c(c2)nnn3C[C@H](N)C(=O)O)cc1` returned an emission maximum (in CO) of 418 nm.
For the setting “in CCO”, `CN(C)c1ccc2c(-c3ccc(Br)cc3)c3ccc(=[N+](C)C)cc-3oc2c1` showed an emission maximum of 579 nm.
Consider `CCCCCCOc1ccc2ccc3oc(=O)cc4cc(OCCCCCC)c1c2c43`, for which the emission maximum (in CC1CCCO1) is 490 nm.
For the setting “in ClCCl”, `Cc1ccccc1-c1c2cccc3c(-c4ccc(C(C)(C)C)cc4)cc4c(-c5ccccc5C)c5cccc6c(-c7ccc(C(C)(C)C)cc7)cc1c(c65)c4c32` came in with an emission maximum of 455 nm.
For `CN(C)c1ccc(N2c3sc4ccccc4c3Sc3sc4ccccc4c32)cc1`, the emission maximum (in ClCCl) came out at 424 nm.
In turn, `N#CC1=CC(Br)=CC(C#N)=P1(c1ccccc1)c1ccccc1` registered an emission maximum (in ClC(Cl)Cl) of 519 nm.
In turn, `Cc1cc2cc3ccccc3cc2cn1` displayed an emission maximum (in CCO) of 437.06 nm.
As to `c1ccc2c(c1)OP1(=NP3(=NP(Oc4ccc5ccc6cccc7ccc4c5c67)(Oc4ccc5ccc6cccc7ccc4c5c67)=N1)Oc1ccccc1-c1ccccc1O3)Oc1ccccc1-2`, the emission maximum (in ClCCl) is on record as 463 nm.
With `N#CSC1=CC2=C(c3ccccc3)c3ccc(SC#N)n3[B-](F)(F)[N+]2=C1N1CCOCC1`, the emission maximum is, setting by setting: (in CC#N) 585 nm; (in CCCCCC) 588 nm; (in CCOC(C)=O) 589 nm; (in CO) 583 nm; (in ClCCl) 594 nm.
Molecule `N#Cc1cc(N2c3ccccc3Sc3ccccc32)c(N2c3ccccc3Sc3ccccc32)cc1C#N` came in with an emission maximum (in c1ccc2c(c1)c1ccccc1n2-c1ccc(-c2ccc(-n3c4ccccc4c4ccccc43)cc2)cc1) of 605 nm.
`COC(=O)c1nc(-c2ccccc2)oc1C`: the emission maximum runs as follows: (in C1CCCCC1) 297 nm; (in CC#N) 322 nm; (in CCO) 324 nm; (in CCOC(C)=O) 318 nm; (in O) 328 nm.
For the molecule `Cc1c(C)c(-c2ccc(-c3cccnc3)cc2)c(C)c(C)c1B(c1c(C)c(C)c(-c2ccc(-c3cccnc3)cc2)c(C)c1C)c1c(C)c(C)c(-c2ccc(-c3cccnc3)cc2)c(C)c1C`, the emission maximum (in ClCCl) was 404 nm.
With `O=S(=O)([O-])c1ccc2c([O-])cc(S(=O)(=O)[O-])cc2c1`, under “in O”, the emission maximum was found to be 485 nm.
`C=CCOc1nnc(OCCC(F)(F)C(F)(F)C(F)(F)C(F)(F)C(F)(F)C(F)(F)F)nn1`: the emission maximum by setting is: (in ClCCl) 573 nm; (in OCC(F)(F)F) 562 nm.
In the case of `Cc1ccc2c(c1)nnn2-c1c(C#N)c2c(N)ncnc2n1[C@H]1C[C@H](O)[C@@H](CO)O1`, for the setting “in CO”, the emission maximum is given as 419 nm.
In the case of `Cc1ccc(-c2ccc(/C=C/c3ccc(F)cc3)cn2)nc1`, the emission maximum (in CC#N) is on record as 391 nm.
In turn, `O=c1[nH]cc(F)c(=O)[nH]1` came in with an emission maximum (in CC#N) of 322 nm.
`C[N+]1=C(/C=C/C2=C3Oc4c(cc5c6c4CCCN6CCC5)C(c4ccccc4C(=O)O)=C3CCC2)C(C)(C)c2c1ccc1ccccc21` came in with an emission maximum (in CC#N) of 780 nm, an emission maximum (in CCO) of 763 nm, an emission maximum (in CO) of 768 nm and an emission maximum (in ClC(Cl)Cl) of 775 nm.
The molecule `N#Cc1c(N2CCCCC2)cc(-c2ccc3ccccc3c2)c2c1-c1ccccc1C2=O` came in with an emission maximum (in C1CCOC1) of 527 nm.
Take `C(/C=C/c1ccc(-n2c3ccccc3c3ccccc32)cc1)=C\c1ccncc1`: the emission maximum (in C1COCCO1) is on record as 436 nm, the emission maximum (in CC#N) turned out to be 492 nm, the emission maximum (in CCCCCCC) was 382 nm and the emission maximum (in CO) is reported as 496 nm.
For `COc1ccc2c3c(c4ccc(OC)cc4c2c1)C(C)(C)c1ccc2ccccc2c1-3`, the emission maximum (in C1CCCCC1) amounted to 396 nm.
`Nc1nc2c(ncn2[C@H]2C[C@H](O)[C@@H](CO)O2)c(=O)[nH]1`: the emission maximum (in O) came out at 338.98 nm.
Under “in Cc1ccccc1”, `CC(C)c1cccc(C(C)C)c1N1C(=O)c2cc(Oc3ccc(C(C)(C)C)cc3)c3c4c(Oc5ccc(C(C)(C)C)cc5)cc5c6c(cc(Oc7ccc(C(C)(C)C)cc7)c(c7c(Oc8ccc(C(C)(C)C)cc8)cc(c2c37)C1=O)c64)C(=O)N(c1c(C(C)C)cccc1C(C)C)C5=O` came in with an emission maximum of 611 nm.
Turning to `Cc1ccc(C2=Cc3ccc4ccccc4[n+]3[B-](F)(F)O2)cc1`, the emission maximum (in ClC(Cl)Cl) is on record as 443 nm.
The molecule `CCCCC(CC)Cn1c2cc(C#N)ccc2c2ccc(C#Cc3ccc4ccc5ccc(C#Cc6ccc7c8ccc(C#N)cc8n(CC(CC)CCCC)c7c6)c6ccc3c4c56)cc21` (stereo not drawn) came in with an emission maximum (in ClCCl) of 458 nm.
Molecule `CC1=[O+][B-]2(OC(=O)C(=O)O2)OC(c2c3ccccc3cc3ccccc23)=C1` yielded an emission maximum (in CC#N) of 527 nm and an emission maximum (in ClC(Cl)(Cl)Cl) of 514 nm.
`Cc1ccc(-c2ccc(-c3ccc(C)cc3)c(/C(=C(/c3ccccc3)c3cc(-c4ccc(C)cc4)ccc3-c3ccc(C)cc3)c3ccccc3)c2)cc1` registered an emission maximum (in C1CCOC1) of 492 nm.
Take `C=CCNc1ccc2ccc3oc4cc(=[N+]5CCCC5)ccc-4nc3c2c1`: the emission maximum reads like this: (in CC#N) 635 nm; (in CCO) 632 nm; (in ClCCl) 622 nm; (in O) 650 nm.
Regarding `CCCC1(CCC)c2cc(-c3ccc(C(C)(C)C)cc3)ccc2-c2ccc(-c3ccc4c(c3)C(CCC)(CCC)c3cc(-c5ccc6c(c5)C(CCC)(CCC)c5cc(-c7ccc8c(c7)C(CCC)(CCC)c7cc(-c9ccc(C(C)(C)C)cc9)ccc7-8)ccc5-6)ccc3-4)cc21`, where the note is “in C1CCCCC1”, the emission maximum was found to be 413 nm.
`CN(C)/C=N\c1ccc2c3c(cccc13)C(=O)c1ccccc1-2` registered an emission maximum (in C1CCOC1) of 586 nm; an emission maximum (in CCCCCC) of 528 nm; an emission maximum (in CCO) of 634 nm; an emission maximum (in CCOC(C)=O) of 586 nm; an emission maximum (in CN(C)C=O) of 624 nm; an emission maximum (in CO) of 638 nm. For the same molecule, the emission maximum is, setting by setting: (in Cc1ccccc1) 551 nm; (in ClC(Cl)(Cl)Cl) 540 nm; (in ClC(Cl)Cl) 575 nm; (in ClCCl) 593 nm; (in c1ccccc1) 550 nm.
`Cc1ccc(-c2nc(-c3cccc(O)c3)[nH]c2-c2ccc(C)cc2)cc1` registered an emission maximum (in CO) of 399 nm.
For `F[B-]1(F)OC(c2ccccc2)=Cc2cc3[n+](c[n+]21)[B-](F)(F)OC(c1ccccc1)=C3`, the emission maximum (in ClCCl) stood at 490 nm.
For `N#Cc1cnc(-c2c3ccccc3cc3ccccc23)nc1`, the emission maximum runs as follows: (in CCO) 510 nm; (in ClCCl) 492 nm.
